Experimental findings from patent publication US20190100534A1, “Cephem Compounds with Latent Reactive Groups” (Gladius Pharmaceuticals, Inc., priority 2017, published 2019) are described below.

Test [1] relates to KOXY (Klebsiella oxytoca). Briefly: MIC determination. Conditions: Klebsiella oxytoca, CAMH broth, 20 μM Apo-Transferrin, 37° C., 18 hours, read-out: Minimum Inhibitory Concentrations, KOXY. The format is cell-based. Summed up: (§1)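 Values come from a visual broth microdilution read: the first transparent well at the lowest drug level defines MIC. Inocula were standardized to 0.5 McFarland units, and the medium was CAMH with 20 μM apo-transferrin. Plates incubated overnight, 18 h, at 37 °C.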

The test system of test [2] is KP (Klebsiella pneumoniae). Briefly: MIC determination. The format is cell-based. As to conditions: 20 μM Apo-Transferrin, 37° C., 18 hours. Summed up:
as §1

Test [3] has as its system A. baumannii (JMI OXA-58). Briefly: MIC determination. The format is cell-based, Acinetobacter baumannii. Conditions: Acinetobacter baumannii, class D carbapenemase producer, CAMH broth, 20 μM Apo-Transferrin, 37° C., 18 hours, read-out: Minimum Inhibitory Concentrations, A. baumannii (JMI OXA-58). The procedure:
(§2) Sterile technique was used throughout these experiments. Suspensions of organisms were removed from storage (−80° C.) and partially thawed. Partially thawed organisms (1 μL) were inoculated into 3 mL sterile LB Broth in a sterile culture tube and capped, then cultured at 37° C. with shaking for 4-5 hours until the optical density at 600 nm (OD600) was greater than 0.1 on a single beam spectrophotometer.
(§3) The concentration of organisms was adjusted to 0.08-0.1 OD600 (0.5 McFarland units) by dilution with sterile cation-adjusted Meuller-Hinton (CAMH) broth. The suspensions were used within 30 minutes of preparation.
(§4) A stock solution was made of each test compound by measuring 6.4 mg of the compound on an analytical balance and dissolving it in DMSO (1 mL) to get a transparent solution. The solutions were stored at −20° C. and thawed prior to use.
(§5) Sterile CAMH broth (200 μL) containing 20 μM Apo-Transferrin was pipetted into the first row of 8 columns of a sterile, round-bottomed, transparent, 96-well microplate using an 8-channel pipette equipped with sterile tips. One hundred μL was pipetted into the wells of the remaining 11 rows.
(§6) With an 8-channel pipette equipped with sterile tips, 100 μL of the first row solution was transferred to the second row and mixed. The process was repeated for the second to third rows and continued through row 11. One hundred μL from row 11 was removed and discarded so that all 12 rows contained 100 μL. Row 12 contained no compound and rows 1-11 contained 64, 32, 16, 8, 4, 2, 1, 0.5, 0.25, 0.125, […] of a given compound.
(§7) Inoculant suspensions (0.5 μL) were added to the 12 wells of each column. The plates were then covered and incubated at 37° C. overnight for 18 hours.
(§8) For each organism the MIC was determined by identifying the transparent well with the lowest test compound concentration.

Test [4] deals with A. baumannii. Briefly: MIC determination. The format is cell-based, Acinetobacter baumannii. Conditions: for MIC: Acinetobacter baumannii, A. baumannii, CAMH broth, 20 μM Apo-Transferrin, 37° C., 18 hours, read-out: Minimum Inhibitory Concentrations, A. baumannii; for MICs for an Acinetobacter baumannii strain, in words: review of Table 2. As for the experimental part:
as §2, §3, §4, §5, §6, §7, §8

Test [5] deals with EC(KB2 CTX-M-14). Briefly: MIC determination. The format is cell-based, Escherichia coli. Conditions: Escherichia coli, 18 h, read-out: Minimum Inhibitory Concentrations, EC(KB2 CTX-M-14). In outline: as §1
For test [6], the system named is ENA (URMC-1). Briefly: MIC determination. The format is cell-based, Enterobacter aerogenes. As to conditions: Klebsiella aerogenes, CAMH broth, 20 μM Apo-Transferrin, 37° C., 18 hours, read-out: Minimum Inhibitory Concentrations, ENA (URMC-1). As for the experimental part:
as §2, §3, §4, §5, §6, §7, §8

In test [7] the test system is ENA (URMC-2). Kind of test: MIC determination. The format is cell-based, Enterobacter aerogenes. As to conditions: Klebsiella aerogenes, CAMH broth, 20 μM Apo-Transferrin, 37° C., 18 hours, read-out: Minimum Inhibitory Concentrations, ENA (URMC-2). As for the experimental part: as §2, §3, §4, §5, §6, §7, §8
For test [8], the system named is EA (URMC -3). Kind of test: MIC determination. The format is cell-based. Conditions: CAMH broth, 20 μM Apo-Transferrin, 37° C., 18 hours. The procedure: as §2, §3, §4, §5
(§9) To each well of the first row was pipetted 2.0 μL of the 6.4 mg/mL stock test compound stock solution to give 1:100 dilutions and a final concentration of 64 μg/mL and mixed.
as §6, §7, §8

Test [9] concerns CF (RR -1). Kind of test: MIC determination. The format is cell-based, Citrobacter freundii. Conditions: CAMH broth, 20 μM Apo-Transferrin, 37° C., 18 hours. The procedure:
as §2, §3, §4, §5, §6, §7, §8

The subject of test [10] is EC (Escherichia coli). Briefly: MIC determination. The format is cell-based. As to conditions: 20 μM Apo-Transferrin, 37° C., 18 hours; for MIC: Escherichia coli, first EC column of Table 3-1, CAMH broth, read-out: Minimum Inhibitory Concentrations, EC; for Minimum Inhibitory Concentrations, EC: Table 3-1, CAMH broth. In outline: as §1
Test [11] relates to various Pseudomonas strains. Kind of test: MIC determination, summary in text. The format is cell-based, Pseudomonas aeruginosa. As to conditions: review of Tables 1-1 and 1-2. The procedure:
as §2, §3, §4, §5, §6, §7, §8

Test [12] deals with various enteric bacteria. Briefly: MIC determination, summary in text. The format is cell-based. Conditions: review of Tables 3-1 to 3-6. The procedure:
as §2, §3, §4, §5, §9, §6, §7, §8

In test [13] the test system is ENC (Enterobacter cloacae). Kind of test: MIC determination. The format is cell-based. Conditions: CAMH broth, 20 μM Apo-Transferrin, 37° C., 18 hours. In outline:
as §1

The test system of test [14] is EC(KB1 CTX-M-14). Kind of test: MIC determination. The format is cell-based, Escherichia coli. As to conditions: Escherichia coli, 18 h, read-out: Minimum Inhibitory Concentrations, EC(KB1 CTX-M-14). Summed up: as §1
Test [15] relates to KP(ATCC SHV-18). Briefly: MIC determination. The format is cell-based, Klebsiella pneumoniae. As to conditions: CAMH broth, 20 μM Apo-Transferrin, 37° C., 18 hours. In outline:
as §1

Setting [16] is: first KP column of Table 3-1, CAMH broth.
Where [17] appears, read: second KP column of Table 3-1, CAMH broth.

For the molecule `CC(C)(O/N=C(\C(=O)N[C@@H]1C(=O)N2C(C(=O)O)=C(C=Cc3ccc(C[N+]4(C)CCc5c(Cl)c(O)c(O)c(Cl)c5C4)cc3)CS[C@H]12)c1csc(N)n1)C(=O)O` (mixture of isomers) [Compound 429, 2-(4-((E/Z)-2-((6R,7R)-7-((Z)-2-(2-aminothiazol-4-yl)-2-(((2-carboxypropan-2-yl)oxy)imino)acetamido)-2-carboxy-8-oxo-5-thia-1-azabicyclo[4.2.0]oct-2-en-3-yl)vinyl)benzyl)-5,8 dichloro-6,7-dihydroxy-2-methyl-1,2,3,4-tetrahydroisoquinolin-2-ium], the MIC is 0.5 µg/mL in test [1]; over 64 µg/mL in test [3]; 2 µg/mL in test [4]; 1 µg/mL in test [5]; 2 µg/mL in test [6]; 1 µg/mL in test [7]. The “Minimum Inhibitory Concentrations, KP” value in [2] (setting [16]) and in test [2] (setting [17]) was 1 microgram/mL each time. Moreover, in [8], the “Mimimum Inhibitory Concentrations, EA (URMC -3)” value is given as 2 microgram/mL. For the same molecule, in test [9], the “Mimimum Inhibitory Concentrations, CF (RR -1)” value was at most 0.06 microgram/mL.

Turning to `CC(C)(O/N=C(\C(=O)N[C@@H]1C(=O)N2C(C(=O)O)=C(C=Cc3ccc(C[N+]4(C)Cc5c(Cl)c(O)c(O)c(Cl)c5C4)cc3)CS[C@H]12)c1csc(N)n1)C(=O)O` (mixture of isomers) [Compound 431, 2-(4-((E/Z)-2-((6R,7R)-7-((Z)-2-(2-aminothiazol-4-yl)-2-(((2-carboxypropan-2-yl)oxy)imino)acetamido)-2-carboxy-8-oxo-5-thia-1-azabicyclo[4.2.0]oct-2-en-3-yl)vinyl)benzyl)-4,7-dichloro-5,6-dihydroxy-2-methylisoindolin-2-ium], the MIC in [10] was 0.5 µg/mL; in test [1], 0.13 µg/mL; in test [3], over 64 µg/mL; in test [4], 1 µg/mL; in [6], 0.5 µg/mL; in test [7], 0.5 µg/mL. Further, the “Minimum Inhibitory Concentrations, EC” value in test [10] was determined as 0.5 microgram/mL. The “Minimum Inhibitory Concentrations, KP” value in [2] (setting [16]) and in test [2] (setting [17]) was 0.13 microgram/mL in each case. The “MICs for an Acinetobacter baumannii strain, in words” value in [4] is given as “low microgram/mL MICs”. Moreover, the “Mimimum Inhibitory Concentrations, EA (URMC -3)” value in [8] is recorded as 1 microgram/mL. The “Mimimum Inhibitory Concentrations, CF (RR -1)” value in test [9] was found to be 1 microgram/mL. In addition, the “MICs for various Pseudomonas strains, in words” value in test [11] was “low microgram/mL MICs”. The “MICs for various enteric bacteria, in words” value in test [12] was “low microgram/mL MICs”.

Consider `CC(C)(O/N=C(\C(=O)N[C@@H]1C(=O)N2C(C(=O)O)=C(C=Cc3ccc(C[N+]4(C)Cc5cc(O)c(O)c(Cl)c5C4)cc3)CS[C@H]12)c1csc(N)n1)C(=O)O` (mixture of isomers) [Compound 432, 2-(4-((E/Z)-2-((6R,7R)-7-((Z)-2-(2-aminothiazol-4-yl)-2-(((2-carboxypropan-2-yl)oxy)imino)acetamido)-2-carboxy-8-oxo-5-thia-1-azabicyclo[4.2.0]oct-2-en-3-yl)vinyl)benzyl)-4-chloro-5,6-dihydroxy-2-methylisoindolin-2-ium], for which the MIC in test [10] is 0.25 µg/mL; in test [1], 0.5 µg/mL; in [3], over 64 µg/mL; in test [4], 1 µg/mL; in test [6] it was 1 µg/mL; in [7] it was 0.25 µg/mL. Besides, the “Minimum Inhibitory Concentrations, EC” value in [10] stood at 0.25 microgram/mL. The “Minimum Inhibitory Concentrations, KP” value in [2] (setting [16]) and in [2] (setting [17]) was 1 microgram/mL throughout. For the same molecule, the “MICs for an Acinetobacter baumannii strain, in words” value in [4] is reported as “low microgram/mL MICs”. Moreover, in test [8], the “Mimimum Inhibitory Concentrations, EA (URMC -3)” value amounted to 0.5 microgram/mL. Moreover, the “Mimimum Inhibitory Concentrations, CF (RR -1)” value in test [9] was 0.5 microgram/mL. Also, the “MICs for various enteric bacteria, in words” value in test [12] is listed as “low microgram/mL MICs”.

Regarding `CC(C)(O/N=C(\C(=O)N[C@@H]1C(=O)N2C(C(=O)O)=C(C=Cc3ccc(C[N+]4(C)CCc5ccc(O)c(O)c5C4)cc3)CS[C@H]12)c1csc(N)n1)C(=O)O` (mixture of isomers) [Compound 442, 2-(4-((E/Z)-2-((6R,7R)-7-((Z)-2-(2-aminothiazol-4-yl)-2-(((2-carboxypropan-2-yl)oxy)imino)acetamido)-2-carboxy-8-oxo-5-thia-1-azabicyclo[4.2.0]oct-2-en-3 yl)vinyl)benzyl)-7,8-dihydroxy-2-methyl-1,2,3,4-tetrahydroisoquinolin-2-ium], the MIC in test [10] was 0.25 µg/mL; in test [3] it was over 64 µg/mL; in [4], 1 µg/mL; in test [14] it was 1 µg/mL; in test [6], 0.5 µg/mL; in test [7] it was 1 µg/mL. In addition, in test [10], the “Minimum Inhibitory Concentrations, EC” value turned out to be 0.25 microgram/mL. In addition, the “Mimimum Inhibitory Concentrations, ENC” value in [13] is 8 microgram/mL. Further, the “MICs for an Acinetobacter baumannii strain, in words” value in test [4] is recorded as “low microgram/mL MICs”. In addition, in [15], the “Minimum Inhibitory Concentrations, KP(ATCC SHV-18)” value was determined as 0.5 microgram/mL. Moreover, the “Mimimum Inhibitory Concentrations, EA (URMC -3)” value in test [8] came to 1 microgram/mL. In [9], the “Mimimum Inhibitory Concentrations, CF (RR -1)” value stood at 0.25 microgram/mL.

Take `C#CC[N+]1(Cc2ccc(C=CC3=C(C(=O)O)N4C(=O)[C@@H](NC(=O)/C(=N\OC(C)(C)C(=O)O)c5csc(N)n5)[C@H]4SC3)cc2)CCc2cc(O)c(O)cc2C1` (mixture of isomers) [Compound 446, 2-(4-((E/Z)-2-((6R,7R)-7-((Z)-2-(2-aminothiazol-4-yl)-2-(((2-carboxypropan-2-yl)oxy)imino)acetamido)-2-carboxy-8-oxo-5-thia-1-azabicyclo[4.2.0]oct-2-en-3-yl)vinyl)benzyl)-6,7-dihydroxy-2-(prop-2-yn-1-yl)-1,2,3,4-tetrahydroisoquinolin-2-ium]: the MIC in test [10] was 0.5 µg/mL; in test [3], over 64 µg/mL; in test [4] it was 2 µg/mL; in test [14], 2 µg/mL; in [5] it was 8 µg/mL. In [10], the “Minimum Inhibitory Concentrations, EC” value was found to be 0.5 microgram/mL. Also, the “Mimimum Inhibitory Concentrations, ENC” value in [13] was determined as 4 microgram/mL. Moreover, in [15], the “Minimum Inhibitory Concentrations, KP(ATCC SHV-18)” value was found to be 1 microgram/mL.
